Experimental data published in PubChem BioAssay (NCI).
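Method: 48-hour compound exposure of cells in 96-well plates, five concentrations, linear interpolation of endpoints. TGI: concentration producing complete growth inhibition.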

Key:
Experiment in all cases: DTP human tumour cell line panel, 48 h
NCI-H522 lung = test system: NCI-H522 lung
HL-60(TB) leukemia = test system: HL-60(TB) leukemia
MOLT-4 leukemia = test system: MOLT-4 leukemia
SK-MEL-28 melanoma = test system: SK-MEL-28 melanoma
UO-31 renal = test system: UO-31 renal
SK-MEL-2 melanoma = test system: SK-MEL-2 melanoma
A549 NSCLC = test system: A549 NSCLC
SNB-19 CNS = test system: SNB-19 CNS
NCI/ADR-RES ovarian = test system: NCI/ADR-RES ovarian
MDA-N = test system: MDA-N
MCF7 breast = test system: MCF7 breast
DU-145 prostate = test system: DU-145 prostate
T-47D breast = test system: T-47D breast
HS 578T breast = test system: HS 578T breast

Compound | TGI (NCI-H522 lung) [µM] | TGI (HL-60(TB) leukemia) [µM] | TGI (MOLT-4 leukemia) [µM] | TGI (SK-MEL-28 melanoma) [µM] | TGI (UO-31 renal) [µM] | TGI (SK-MEL-2 melanoma) [µM] | TGI (A549 NSCLC) [µM] | TGI (SNB-19 CNS) [µM] | TGI (NCI/ADR-RES ovarian) [µM] | TGI (MDA-N) [µM] | TGI (MCF7 breast) [µM] | TGI (DU-145 prostate) [µM] | TGI (T-47D breast) [µM] | TGI (HS 578T breast) [µM]
NC12CC3CC(C1)CC(Cl)(C3)C2 | > 100 | > 100 | > 100 | > 100 | > 100 | > 100 | > 100 |  |  |  |  |  |  | 
C=C(C)[C@@H]1CC[C@@H](C)[C@](O)([C@@H]2C[C@@H]([C@H](COC(=O)c3ccccc3)OC(=O)c3ccccc3)OC2=O)C1 | > 100 |  | > 100 | > 100 | > 100 | > 100 | > 100 | > 100 | > 100 | > 100 | > 100 | > 100 |  | 
COc1ccc(C2CCC(Cl)(OC)CC2C=O)cc1 (stereo not given) | > 100 | > 100 | > 100 | > 100 | > 100 | > 100 | > 100 | > 100 |  |  |  |  |  | 
COC(=O)[C@H]1C=C[C@@H](C)n2c(=O)c3ccccc3c(=O)n21 | > 100 | > 100 | > 100 | > 100 | > 100 | > 100 | > 100 | > 100 |  |  |  |  |  | 
CC(=O)OC1OC2C(NC(=O)OC(C)(C)C)C1CC2(OCc1ccccc1)OCc1ccccc1 (stereo not given) | 30.5 | 35.2 | 62.9 | 57.2 | 30.3 | 38.9 | > 100 | > 100 |  |  |  |  |  | 
CCOC(=O)C1=C(O)c2ccccc2C(=O)C1=O | > 100 | > 100 | > 100 | > 100 | > 100 | > 100 | > 100 | > 100 |  |  |  |  |  | 
CC1=CCC[C@@](C)(O)[C@@H]2C[C@H]3C(CSc4ccccc4)C(=O)O[C@H]3[C@@H](O2)[C@H](C)CCC1 (stereo not given in full) | 35.9 | > 100 | > 100 | 52.9 | 24.1 | 32.3 | 27.1 | 26.7 |  | 86.2 | 29.4 | 76.6 | 93.7 | 56.4
COc1cc(C)cc2c1C(=O)C(Br)=CC2=O | 3.19 |  | 5.19 | 33.3 | 11.3 | 29.4 | 43.4 | 30.2 | 74.9 | 8.16 | 21.6 | 32.4 | 4.75 | 71.5
c1ccc2[nH]c3[nH]c4[nH]c5ccccc5[nH]c4[nH]c3[nH]c2c1 | > 100 | > 100 | > 100 | > 100 | > 100 | > 100 | > 100 | > 100 | > 100 | > 100 | > 100 | > 100 |  | > 100
C/C(=N\NS(=O)(=O)c1ccc(C)cc1)C(CN(C)C)C(c1ccccc1)c1c(O)c2ccccc2oc1=O (stereo not given) | > 100 | > 100 | > 100 | > 100 | > 100 | > 100 | > 100 | > 100 | > 100 | > 100 | > 100 | > 100 |  | > 100
Cn1c2ccccc2c(=O)c2c(O)cc3c(c21)C=CC1(CCCC1)O3 | > 100 | > 100 | > 100 | > 100 |  | > 100 | > 100 | > 100 | > 100 |  | > 100 | > 100 |  | > 100
OCC(O)COc1c(Cl)ccc(Cl)c1Cl (stereo not given) | > 100 | > 100 | > 100 | > 100 | > 100 | > 100 | > 100 | > 100 |  |  |  |  |  | 
CCOc1ccc(N/C(=C(/C(Cl)=C(/Cl)NCCO)[N+](=O)[O-])n2nnc3ccccc32)cc1 |  |  | > 100 | 37.7 | 58 | > 100 | > 100 | > 100 | 64 | > 100 | 38.8 | 36 | 37.6 | 38.8
Nc1nc(N)nc(-c2cnccn2)n1 | > 100 |  | > 100 | > 100 | > 100 | > 100 | > 100 | > 100 | > 100 |  | > 100 | > 100 | > 100 | 
COc1ccc(/C=C2\N=C(c3ccccc3)N(Nc3nnc(NN4C(=O)/C(=C/c5ccc(OC)cc5)N=C4c4ccccc4)c4ccccc34)C2=O)cc1 | > 100 | 61.4 | > 100 | > 100 |  |  | > 100 | > 100 |  |  |  |  |  | 
CN(C)CCCSc1c2ccccc2nc2cc(NCC(=O)Nc3ccccc3-c3ccccc3NC(=O)CNc3ccc4c(SCCCN(C)C)c5ccccc5nc4c3)ccc12 | > 100 | 50.3 | > 100 | > 100 | > 100 | > 100 | > 100 | > 100 |  |  |  |  |  | 
NC(=O)C12C3C4C1C1C2C3C41C(N)=O (stereo not given) | > 100 | > 100 | > 100 | > 100 | > 100 | > 100 | > 100 | > 100 |  |  |  |  |  | 
CC(=O)c1c(O)ccc2c1CC(CC=O)O2 (stereo not given) | > 100 | > 100 | > 100 | > 100 | > 100 |  | > 100 | > 100 |  |  |  |  |  | 
COC1=CC(C2c3cc4c(cc3[C@@H](Nc3ccc([N+](=O)[O-])cc3)C3COC(=O)[C@H]23)OCO4)=CC(=O)C1=O (stereo not given in full) | 13.4 |  | 10.5 | > 94.8 | 20.7 | 92 | 10.6 | > 86.5 |  |  |  |  |  | 
CO[C@@](c1ccccc1)(c1nc(C#N)c(N)o1)C(F)(F)F | 85.9 |  | > 100 | > 100 | > 100 | > 100 | > 100 | > 100 | > 100 | > 100 | > 100 | > 100 | > 100 | 
CC1=Nc2c([nH]c(=S)[nH]c2=O)NC(c2ccc(Cl)c(Cl)c2)C1 (stereo not given) | > 100 | > 100 | > 100 | 36.7 | 89.6 | > 100 | 47.5 | > 59.8 |  |  |  |  |  | 
